These are literature values, as cited in US20070026087A1 (priority 2003, published 2007).

The structures appear in SMILES notation. Where two headings read alike, the source gives them in different places.

One data set has as its system Vacciniavirus. As to conditions: Thurman & Gerba 1989.
In a further data set the test system is Adenovirus. As to conditions: Thurman & Gerba 1989.
For data set [1], the system named is HSV (herpes simplex virus)-1. As to conditions: Thurman & Gerba 1989.
Data set [2] concerns HSV (herpes simplex virus)-2. As to conditions: Thurman & Gerba 1989.
In a further data set the test system is HVJ. As to conditions: Thurman & Gerba 1989.
[3] abbreviates: reported, effective only temporarily.

As for `CCO` [ethanol], the “efficacy as disinfectant against SARS coronavirus” value (“efficacy as disinfectant” for short) with SARS coronavirus (setting [3]) is “effective”.

Turning to `C1CO1` [ethylene oxide gas, ethylene oxide], the “efficacy as disinfectant” value in the data set with SARS coronavirus (setting [3]) is given as “effective”.

With `O=CCCCC=O` [glutaraldehyde], the “efficacy as disinfectant” value with SARS coronavirus (setting [3]) is on record as “effective”.

As for `CC(=O)OO` [peracetic acid], the “efficacy as disinfectant” value in the data set with SARS coronavirus is “effective”.

For `O=[N+]([O-])[O-].[Ag+]` [silver nitrate], the “efficacy against Vacciniavirus” value in the data set on Vacciniavirus is “not effective”. Moreover, in the data set with Adenovirus, the “efficacy against Adenovirus” value is “not effective”. In addition, in data set [1], the “efficacy against HSV-1” value is “effective”. Also, in data set [2], the “efficacy against HSV-2” value is “effective”. The “efficacy against Poliovirus” value in the data set with Poliovirus was “not effective”. For the same molecule, the “efficacy against VSV” value in the data set on VSV is “not effective”. In the data set with HVJ, the “efficacy against HVJ” value is recorded as “not effective”.

In the case of `OCl` [sodium hypochlorite], the “efficacy as disinfectant” value in the data set with SARS coronavirus (setting [3]) is recorded as “effective”.
